Experimental data from ChEMBL document CHEMBL4371009, “Polypharmacology by Design: A Medicinal Chemist's Perspective on Multitargeting Compounds” (J Med Chem, 2019).

Assays:
[1] = biological target: T1, 5-hydroxytryptamine receptor 1A (Homo sapiens, UniProt P08908); assay: Displacement of [3H]-Way100635 from 5HT1A (unknown origin) expressed in CHO cell membranes
T1 sequence (P08908 whole entry): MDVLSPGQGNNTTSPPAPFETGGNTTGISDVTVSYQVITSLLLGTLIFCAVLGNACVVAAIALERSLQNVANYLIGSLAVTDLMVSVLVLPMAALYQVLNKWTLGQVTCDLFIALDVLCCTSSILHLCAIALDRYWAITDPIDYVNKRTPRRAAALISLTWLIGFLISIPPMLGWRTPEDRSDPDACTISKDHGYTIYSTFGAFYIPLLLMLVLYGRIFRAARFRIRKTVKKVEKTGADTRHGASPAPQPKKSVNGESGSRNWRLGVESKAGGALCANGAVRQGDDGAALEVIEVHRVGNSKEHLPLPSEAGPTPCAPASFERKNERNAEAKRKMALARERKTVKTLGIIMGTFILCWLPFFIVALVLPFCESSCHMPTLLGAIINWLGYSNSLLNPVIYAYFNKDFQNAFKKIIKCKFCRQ

D(4) dopamine receptor = biological target: T2, D(4) dopamine receptor (Homo sapiens, UniProt P21917); assay: Displacement of [3H]-N-methylspiperone from dopamine D4 receptor (unknown origin) expressed in HEK293 cell membranes
T2 sequence (P21917 whole entry): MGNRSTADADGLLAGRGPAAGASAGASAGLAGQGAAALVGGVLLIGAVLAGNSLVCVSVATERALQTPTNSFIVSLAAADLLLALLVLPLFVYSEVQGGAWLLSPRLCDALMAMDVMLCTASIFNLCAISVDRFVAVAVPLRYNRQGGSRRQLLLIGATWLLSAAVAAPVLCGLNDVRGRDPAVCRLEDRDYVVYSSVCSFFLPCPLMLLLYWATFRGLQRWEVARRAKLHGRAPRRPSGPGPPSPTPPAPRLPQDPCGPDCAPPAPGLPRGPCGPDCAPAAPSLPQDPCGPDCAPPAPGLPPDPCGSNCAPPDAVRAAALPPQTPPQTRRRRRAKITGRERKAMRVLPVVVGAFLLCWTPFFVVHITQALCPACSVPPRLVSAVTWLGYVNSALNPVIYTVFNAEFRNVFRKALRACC

D(3) dopamine receptor = D(3) dopamine receptor (Homo sapiens, UniProt P35462); assay: Displacement of [3H]-N-methylspiperone from dopamine D3 receptor (unknown origin) expressed in HEK293 cell membranes
D(3) dopamine receptor, sequence (P35462 whole entry): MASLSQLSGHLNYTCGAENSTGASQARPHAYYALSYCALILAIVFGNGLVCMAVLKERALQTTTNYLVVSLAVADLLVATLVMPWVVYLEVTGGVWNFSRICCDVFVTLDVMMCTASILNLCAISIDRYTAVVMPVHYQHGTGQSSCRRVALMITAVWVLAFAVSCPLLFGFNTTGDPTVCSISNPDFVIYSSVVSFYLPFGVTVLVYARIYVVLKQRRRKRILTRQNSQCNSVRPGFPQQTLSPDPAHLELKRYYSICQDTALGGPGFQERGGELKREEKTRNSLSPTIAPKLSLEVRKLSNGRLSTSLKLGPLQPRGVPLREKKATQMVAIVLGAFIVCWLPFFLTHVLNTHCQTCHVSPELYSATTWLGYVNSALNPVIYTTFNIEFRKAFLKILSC

- Ki [1]: 1.2 nM
- Ki (D(4) dopamine receptor): 6.5 nM
- Ki (D(3) dopamine receptor): 3 nM
Compound: COc1cc2c(cc1OC)C(=O)N(CCCCN1CCN(c3ccccn3)CC1)CCC2
